Results: patent US20260240820A1, “METHOD FOR CONTROLLING MEMBRANE POTENTIAL-DEPENDENT ION CHANNEL THROUGH TYPE I TASTE RECEPTORS (T1RS)” (ION CHAT RESEARCH CORPORATE, priority 2022, published 2026)
“Also recorded” adds a separate entry of the source.

How the values were obtained:
Nav1.6 = assay: Patch-clamp recording of VGSC current in HEK (Nav1.6) cells; type: cell-based, human
From the text: The cells used in the previous (18-1) experiment were cardiac-type VGSC cells. In this experiment, HEK (Nav1.1) and HEK (Nav1.6) cells, which are considered neuronal VGSC cells, were created. The effects of four peptides—Aβ25-35, Aβ1-38, Aβ1-40, and Aβ1-42—were examined using the same experimental protocol as in (18-1). […]

Nav1.1 = assay: Patch-clamp recording of VGSC current in HEK (Nav1.1) cells; type: cell-based, human
From the text: The cells used in the previous (18-1) experiment were cardiac-type VGSC cells. In this experiment, HEK (Nav1.1) and HEK (Nav1.6) cells, which are considered neuronal VGSC cells, were created. The effects of four peptides—Aβ25-35, Aβ1-38, Aβ1-40, and Aβ1-42—were examined using the same experimental protocol as in (18-1).

[1] = tested on: Nav1.5 in T1R3-silenced HEK cells; assay: VGSC current in HEK Nav1.5 cells with silenced T1R3; type: cell-based, human
From the text: The miRNAs Oligo (Thermofisher) used for silencing were annealed to form double-stranded DNA, which was then linked to the miR RNAi Expression Vector using T4 DNA ligase to create the knockdown vector. Specifically, the procedure followed the miR RNAi Expression Vector Kit manual (BLOCK-i™ Pol II miR RNAi Expression Vector Kit with EmGFP (Catalog number: K493600)).
Since Aβ25-35 peptide produced similar effects (enhancing VGSC activity, lowering the excitability threshold) as glutamine, it was considered that Aβ25-35 peptide might also act on T1R2/T1R3 receptors like glutamine. Therefore, in this implementation example, we used HEK-Nav1.5 cells with silenced T1R3 and compared the effect of Aβ25-35 peptide on VGSC with that in control HEK-Nav1.5 cells.
To strengthen these findings, we conducted similar experiments using HEK Nav1.5 cells in which T1R3 expression was silenced (FIG. 22). We measured VGSC currents in T1R3-silenced HEK Nav1.5 cells, applying stimuli every 8 seconds.

[2] = tested on: endogenous T1R GPCR of HEK cells; assay: Intracellular calcium (Cal-520) in HEK cells stably expressing Nav1.1 with endogenous T1R GPCR; type: cell-based, human; details: 10 nM then 20 nM for Aβ1-40 and Aβ1-42
Procedure: Specifically, experiments were conducted as follows using HEK cells stably expressing Nav1.1 (FIG. 45). The calcium-sensitive reagent (Cal-520, AAT Bioquest) was incubated at 37° C. for 60 minutes, followed by incubation at room temperature for 30 minutes, and then changes in intracellular calcium were measured using a fluorescence microscope. […] Initially, 10 nM, followed by 20 nM of Aβ1-40 was applied after 5 minutes (arrow). […] A total of 6 cell groups from two independent experiments were measured, averaged by the maximum fluorescence response value, and the mean and standard error (stderr) were calculated and plotted. […] 10 nM, followed by 20 nM of Aβ1-42 was applied after 5 minutes (arrow). […] A total of 12 cell groups from two independent experiments were measured, averaged by the minimum fluorescence response value, and the mean and standard error (stderr) were calculated and plotted. Similar to the experimental results using the patch-clamp method when Aβ peptide was applied to Nav1.5, it was confirmed from intracellular calcium measurements that the effects of Aβ1-40 and Aβ1-42 were different.

Nav1.5 = assay: Patch-clamp (voltage clamp) recording of VGSC current in HEK cells stably expressing Nav1.5

Substance: Aβ1-38: amyloid β peptide (Peptide Institute), Sequence No. 2
- Effect on VGSC current (Nav1.6): VGSC enhancement
- Effect on VGSC current (Nav1.1): VGSC enhancement
- Effect on VGSC in T1R3-silenced cells [1]: is lost
- Change in intracellular calcium [2]: an increase in intracellular calcium was observed
- Effect on VGSC inactivation (Nav1.5): delayed inactivation effect
- Shift of steady-state inactivation (S-S) curve of VGSC (Nav1.5): shifted to the right; also recorded: shifting to the depolarizing side
- VGSC current from prepulse/holding potential −80 mV (Nav1.5): enhancing currents; also recorded: significantly amplified
- VGSC current from prepulse/holding potential −120 mV (Nav1.5): decreased; also recorded: slightly decreased
